Measured values as given in patent US8859573B2, “Pyrimidinone and pyridinone compounds for use in the treatment of diseases or conditions mediated by Lp-PLA2” (Glaxo Group Limited, priority 2010, dated 2014).
Structures can show the parent of a compound that is named as a salt.

Legend:
[1] = system: proinflammatory (M1) and anti-inflammatory (M2) markers; assay: Ex vivo analysis of M1 and M2 markers in macrophages of EAE animals (realtime PCR); parameters: species or system rats; settings: EAE by MBP immunization, splenic macrophages day 13 and CNS infiltrating macrophages
Description: A further study was carried out to study the impact of Lp-PLA2 inhibitors on modulating M1/M2 imbalance. In this study, rats were induced to develop experimental autoimmune encephalomyelitis (EAE) by immunization with myelin basic protein (MBP) antigen and treated with a known Lp-PLA2 inhibitor: 5-((9-Methoxy-4-oxo-6,7-dihydro-4H-pyrimido[6,1-a]isoquinolin-2-yl)oxy)-2-(3-(trifluoromethyl)phenoxy)benzonitrile (See PCT application no. PCT/CN2011/001597) For preventive treatment, compound administration started at day 0 whereas it started at 7 day in therapeutic treatment. Rats were subsequently monitored for symptoms of EAE. Rats were immunized with MBP to develop EAE and symptoms were monitored daily. Plasma Lp-PLA2 activity and LysoPC concentration were determined at different time points through the course of EAE.
Ex vivo analysis of proinflammatory (M1) and anti-inflammatory (M2) markers in control and compound treated EAE […]. Splenic macrophages were harvested at day 13 post MBP-immunization and assayed for expression of a variety of markers by realtime PCR. CNS infiltrating cells were harvested and macrophages were analyzed for expression of M1 and M2 markers by realtime PCR.

[2] = target: T1, recombinant human Lp-PLA2 (Homo sapiens, UniProt Q13093); assay: Recombinant human Lp-PLA2 assay (rhLp-PLA2, PED6 assay); assay type: biochemical; settings: upper limit for pIC50 in this assay is 9.3
T1 sequence (Q13093 22-441): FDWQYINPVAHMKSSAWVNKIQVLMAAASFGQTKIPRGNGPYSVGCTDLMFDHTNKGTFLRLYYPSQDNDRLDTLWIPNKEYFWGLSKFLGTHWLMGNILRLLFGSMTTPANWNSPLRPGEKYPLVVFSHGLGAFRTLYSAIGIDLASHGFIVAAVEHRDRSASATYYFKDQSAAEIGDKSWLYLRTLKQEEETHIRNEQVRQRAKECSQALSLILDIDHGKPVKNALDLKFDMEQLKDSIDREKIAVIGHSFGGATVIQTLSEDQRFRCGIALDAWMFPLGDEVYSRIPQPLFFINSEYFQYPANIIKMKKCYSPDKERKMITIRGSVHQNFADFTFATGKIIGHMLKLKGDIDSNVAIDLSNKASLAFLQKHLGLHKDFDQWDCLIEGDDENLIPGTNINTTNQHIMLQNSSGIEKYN
From the text: (1) Recombinant Human Lp-PLA2 Assay (rhLp-PLA2) (Also Referred to as “PED6” Assay)
N-((6-(2,4-dinitrophenyl)amino)-hexanoyl)-2-(4,4-difluoro-5,7-dimethyl-4-bora-3a,4a-diaza-s-indacene-3-pentanoyl)-1-hexadecanoyl-sn-glycero-3-phosphoethanolamine, triethylammonium salt (PED6) is a commercially available fluorescently-labelled phospholipid, which is commercially available from Molecular Probes. There is a quenching para-nitro phenyl (PNP) group in the sn3 position and a Bodipy fluorescein (FL) group in the sn2 position. Upon cleavage with Lp-PLA2, the Bodipy F1 group is liberated and then may result in an increase in fluorescence. Inhibitors of Lp-PLA2 therefore prevent this cleavage and no fluorescent increase is observed.
The PED6 assay was run as an […] 10 μL assay. Compounds source plate was prepared by making 1:3 (by volume) serial dilution of the compounds into pure DMSO on 384-well microplate. Then, 0.01 μL of compounds on compound source plate were transferred into 384 well Greiner 784076 (black) plates by ECHO liquid dispenser. 5 μL of recombinant human Lp-PLA2 enzyme (2 nM rhLp-PLA2 in assay buffer of 50 mM HEPES, pH7.4, 150 mM NaCl, 1 mM CHAPS) was added to each well of the plate with compounds. Plates were centrifuged for 10 sec at 500 rpm. After 30 minutes preincubation, […] substrate (4 μM PED6 [from 5 mM DMSO stock] in assay buffer of 50 mM HEPES, pH7.4, 150 mM NaCl, 1 mM CHAPS) was added to 384 well Greiner 784076 (black) plates. Plates were centrifuged for 10 sec at 500 rpm. Plate was covered to protect from light and incubated for 20 min at room temperature. Plates were read for fluorescence intensity at ex: 480/em: 540 using ViewLux microplate imager. PIC50 data, curve and QC analysis was conducted by using XL fit module in Excel.

[3] = target: T2, Lp-PLA2 from plasma (Homo sapiens, UniProt Q13093); assay: Lp-PLA2 human plasma assay (Thio-PAF assay); assay type: biochemical; settings: pooled human plasma; read-out: pIC50 values in the thio-PAF assay (converted)
T2 construct: from tissue; host or cells: pooled human plasma
T2 sequence (Q13093 22-441): T1 sequence (Q13093 22-441)
From the text: (3) Lipoprotein-Associated Phospholipase A2 (Lp-PLA2) Human Plasma Assay (Also Referred to as “Thio-PAF Assay”)
The human plasma assay utilizes a thioester analog of PAF (phosphatidylcholine), where hydrolysis yields to the formation of a phospholipid containing a free thiol group. The amount of thiol is quantitated continuously by reacting with CPM (7-diethylamino-3-(4′-maleimidylphenyl)-4-methylcoumarin), a maleimide which increases in fluoresence after Michael addition of thiols. This assay may detect the activity of Lp-PLA2 from plasma, as determined by specific inhibition by Lp-PLA2 inhibitors.
The thio-PAF assay was run as a quenched 15 μL assay. Compounds source plate was prepared by making 1:3 (by volume) serial dilution of the compounds into pure DMSO on 384-well microplate. 0.01 μL of compounds on compound source plate were transferred to 384 well Greiner 784076 (black) low-volume plates by ECHO liquid dispenser. 8 μL pooled human plasma, which was previously aliquoted and frozen, was added. Plates were centrifuged for 10 sec at 500 rpm. After 30 minutes preincubation, 2 μL of substrate (2.5 mM thio-PAF, 3.2 mM NEM (N-ethylmaleimide) [made fresh daily in DMSO], and 32 μM CPM [from a DMSO stock] in assay buffer of 50 mM HEPES, pH7.4, 150 mM NaCl, 1 mM CHAPS was added to 384 well Greiner 784076 (black) low-volume plates by BRAVO liquid handling station. Plates were centrifuged for 10 sec at 500 rpm. Plate was covered to protect from light and incubated for 2 min at room temperature. Reaction was quenched with 5 μL of 5% aqueous trifluoroacetic acid (TFA). Plates were covered to protect from light and incubated for 40 min at room temperature. Plates were read at ex: 380/em: 485 using-Envision microplate reader. PIC50 data, curve and QC analysis was conducted by using XLFit module in Excel.

Row | SMILES | IC50 [2] | IC50 [3] | M1 markers [1] | M2 markers [1]
1 | COc1ccc2c(c1)CCn1c-2cc(Oc2ccc(Oc3cccc(C(F)(F)F)c3)c(C#N)c2)nc1=O [5-((9-Methoxy-4-oxo-6,7-dihydro-4H-pyrimido[6,1-a]isoquinolin-2-yl)oxy)-2-(3-(trifluoromethyl)phenoxy)benzonitrile] |  |  | decrease | increase
2 | COc1ncc(Cn2cc(Cl)c(OCCc3ccc(Cc4ccc(Cl)c(C(F)(F)F)c4)cc3)nc2=O)cn1 [Example 45, 5-chloro-4-(4-(4-chloro-3-(trifluoromethyl)benzyl)phenethoxy)-1-((2-methoxypyrimidin-5-yl)methyl)pyrimidin-2(1H)-one] | ≤ 0.001 µM | ≤ 0.1 µM |  | 
3 | Cn1cc(Cn2cc(F)c(OCCc3ccc(Oc4ccc(C(F)(F)F)nc4)c(F)c3)nc2=O)cn1 [Example 41, 5-fluoro-4-(3-fluoro-4-((6-(trifluoromethyl)pyridin-3-yl)oxy)phenethoxy)-1-((1-methyl-1H-pyrazol-4-yl)methyl)pyrimidin-2(1H)-one] | ≤ 0.001 µM | ≤ 0.1 µM |  | 
4 | Cn1cc(Cn2ccc(OCCc3cnc(Oc4ccc(Cl)c(C(F)(F)F)c4)c(F)c3)nc2=O)cn1 [Example 18, 4-{[2-(6-{[4-Chloro-3-(trifluoromethyl)phenyl]oxy}-5-fluoro-3-pyridinyl)ethyl]oxy}-1-[(1-methyl-1H-pyrazol-4-yl)methyl]-2(1H)-pyrimidinone] | ≤ 0.001 µM | ≤ 0.1 µM |  | 
5 | N#Cc1cc(COc2ccn(Cc3cccnc3)c(=O)n2)ccc1Oc1ccc(Cl)c(C(F)(F)F)c1 [Example 4, 2-(4-Chloro-3-(trifluoromethyl)phenoxy)-5-(((2-oxo-1-(pyridin-3-ylmethyl)-1,2-dihydropyrimidin-4-yl)oxy)methyl)benzonitrile] | ≤ 0.001 µM | ≤ 0.1 µM |  | 
6 | Cn1cc(Cn2ccc(OCc3cnc(Oc4ccc(Cl)c(C(F)(F)F)c4)c(F)c3)nc2=O)cn1 [Example 17, 4-{[(6-{[4-Chloro-3-(trifluoromethyl)phenyl]oxy}-5-fluoro-3-pyridinyl)methyl]oxy}-1-[(1-methyl-1H-pyrazol-4-yl)methyl]-2 (1H)-pyrimidinone] | ≤ 0.001 µM | ≤ 0.1 µM |  | 
7 | Cn1cc(Cn2ccc(OCc3ccc(Oc4ccc(Cl)c(C(F)(F)F)c4)cc3)nc2=O)cn1 [Example 8, 4-{[(4-{[4-Chloro-3-(trifluoromethyl)phenyl]oxy}phenyl)methyl]oxy}-1-[(1-methyl-1H-pyrazol-4-yl)methyl]-2(1H)-pyrimidinone] | ≤ 0.001 µM | ≤ 0.1 µM |  | 
8 | Cn1cc(Cn2cc(F)c(OCCc3cnc(Oc4ccc(Cl)c(C(F)(F)F)c4)c(F)c3)nc2=O)cn1 [Example 33, 4-(2-(6-(4-chloro-3-(trifluoromethyl)phenoxy)-5-fluoropyridin-3-yl)ethoxy)-5-fluoro-1-((1-methyl-1H-pyrazol-4-yl)methyl)pyrimidin-2(1H)-one] | ≤ 0.001 µM | ≤ 0.1 µM |  | 
9 | Cn1cc(Cn2cc(Cl)c(OCCc3cnc(Oc4ccc(Cl)c(C(F)(F)F)c4)c(F)c3)nc2=O)cn1 [Example 31, 5-Chloro-4-(2-(6-(4-chloro-3-(trifluoromethyl)phenoxy)-5-fluoropyridin-3-yl)ethoxy)-1-((1-methyl-1H-pyrazol-4-yl)methyl)pyrimidin-2(1H)-one] | ≤ 0.001 µM | ≤ 0.1 µM |  | 

Further lines, with some results ahead:

Row | IC50 [2] | IC50 [3] | SMILES | M1 markers [1] | M2 markers [1]
10 | ≤ 0.001 µM | ≤ 0.1 µM | Cn1cc(Cn2cc(F)c(OCCc3ccc(Oc4ccc(F)c(F)c4)c(F)c3)nc2=O)cn1 [Example 59, 4-(4-(3,4-difluorophenoxy)-3-fluorophenethoxy)-5-fluoro-1-((1-methyl-1H-pyrazol-4-yl)methyl)pyrimidin-2(1H)-one, trifluoroacetic acid salt] |  | 
11 | ≤ 0.001 µM | ≤ 0.1 µM | Cc1cn(Cc2cnn(C)c2)c(=O)nc1OCc1ccc(Oc2ccc(F)c(F)c2)c(F)c1 [Example 72, 4-((4-(3,4-difluorophenoxy)-3-fluorobenzyl)oxy)-5-methyl-1-((1-methyl-1H-pyrazol-4-yl)methyl)pyrimidin-2(1H)-one] |  | 
12 | ≤ 0.001 µM | ≤ 0.1 µM | Cn1cc(Cn2cc(F)c(OCCc3ccc(Cc4ccc(Cl)c(C(F)(F)F)c4)cc3)nc2=O)cn1 [Example 46, 4-(4-(4-chloro-3-(trifluoromethyl)benzyl)phenethoxy)-5-fluoro-1-((1-methyl-1H-pyrazol-4-yl)methyl)pyrimidin-2(1H)-one] |  | 
13 | ≤ 0.001 µM | ≤ 1 µM | CCn1ccc(OCc2ccc(Oc3ccc(Cl)c(C(F)(F)F)c3)c(C#N)c2)nc1=O [Example 5, 2-{[4-Chloro-3-(trifluoromethyl)phenyl]oxy}-5-{[(1-ethyl-2-oxo-1,2-dihydro-4-pyrimidinyl)oxy]methyl}benzonitrile] |  | 
14 | ≤ 0.001 µM | ≤ 0.1 µM | Cc1cn(Cc2cnn(C)c2)c(=O)nc1OCc1ccc(Oc2cccc(C(F)(F)F)c2)c(C#N)c1 [Example 69, 5-(((5-methyl-1-((1-methyl-1H-pyrazol-4-yl)methyl)-2-oxo-1,2-dihydropyrimidin-4-yl)oxy)methyl)-2-(3-(trifluoromethyl)phenoxy)benzonitrile] |  | 
